Data as given in patent US20100297256A1, “METHODS AND COMPOSITIONS FOR INHIBITING INTEGRINS USING TELLURIUM-CONTAINING COMPOUNDS” (priority 2007, published 2010).

How the values were obtained:
[1] = test system: U937 cells; test: Fluorescence-based flow cytometry analysis of cell death; set-up: species or system human; conditions: agent alone
Text: Fluorescence-based flow cytometry was used to measure the effect of tellurium-containing compounds on chemotherapy-induced cell death. Accumulation of cells in the sub-G1 fraction, increased proportion of annexin V-positive and propidium iodide-positive cells and increased caspase activity were each used as indicators of increased cell death, using standard procedures.

[2] = test system: Bcl2; test: Western blot analysis of Bcl2; format: cell-based, human; conditions: ARA-C alone
Text: The expression of the survival factor Bcl2 was examined via Western blot analysis in U937 cells treated with the chemotherapeutic agent ARA-C.

[3] = test system: U937 cells; test: AML chemotherapy resistance assay (XTT cell viability), U937; format: cell-based, human; conditions: for resistance of cells to the agent on fibronectin-coated plates in comparison with VCAM-1- and BSA-coated plates: U937
Description: (§1) Cell viability was determined using a cell proliferation kit (Roche), which colors viable cells using the tetrazolium salt XTT.
(§2) 2×10^4 per 200 μl cells were seeded in 96-microwell flat bottom plates. After 24 hours, the tested compound(s) (e.g., AS101, ARA-C, DTNB, anti-VLA-4 antibody) was added, and the cells were incubated overnight with the tested compound(s). The XTT solution was then added and the cells were incubated for 4 hours at 37° C. Cell viability was than evaluated by measuring absorbance at 450 nm using a Microplate Spectrophotometer (Spectra MAX Plus, Molecular Devices).
The role of VLA protein in fibronectin-induced resistance to chemotherapy was investigated by performing a chemotherapy resistance assay, as described hereinabove, with anti-VLA-4 and anti-VLA-5 antibodies. U937 cells were grown in fibronectin- and BSA-coated plates. Antibodies were added at a concentration of 1 μg/ml.

[4] = test system: HL-60 cells; test: AML chemotherapy resistance assay (XTT cell viability), HL-60; format: cell-based, human; conditions: HL-60
Description: as §1, §2

[5] = test system: leukemic cells from AML patients; test: Sensitization of leukemic cells from AML patients to chemotherapy; format: cell-based, human
Description: as §2
Bone marrow samples from patients diagnosed, with AML, but not yet treated, were obtained and grown in vitro. The leukemic cells obtained therefrom were tested for levels of VLA-4 and VLA-5 via fluorescence based cytometry, using FITC (fluorescein isothiocyanate)-conjugated anti-VLA-4 and anti-VLA-5 antibodies, using standard procedures. The cells were grown on both fibronectin and BSA, and the effect of AS101 on chemotherapy resistance was measured.

[6] = test system: leukemic cells; test: Chemotherapy resistance assay with DTNB, leukemic cells; format: cell-based
Description: as §2
The role of free thiols in VLA-4/fibronectin-induced resistance to chemotherapy was therefore investigated by performing a chemotherapy resistance assay, as described hereinabove, with the membrane-impermeable thiol blocker DTNB (5 mM).

## Nc1ccn([C@@H]2O[C@H](CO)[C@@H](O)[C@@H]2O)c(=O)n1 [ARA-C, cytosine arabinoside, reference compound]
[1]; U937 on BSA
  percentage of annexin V-positive and propidium iodide-positive cells: large percentage
  percentage of cells in the sub-G1 fraction: large percentage
[1]; U937 on fibronectin
  percentage of annexin V-positive and propidium iodide-positive cells: slight increase
  percentage of cells in the sub-G1 fraction: slight increase
  percentage of cells with high caspase-3 activity: little or no effect
[2]; U937 on BSA
  expression of Bcl2: reduced expression of Bcl2 considerably
[2]; U937 on fibronectin
  expression of Bcl2: did not decrease expression of Bcl2
[3]
  resistance of cells to the agent on fibronectin-coated plates in comparison with VCAM-1- and BSA-coated plates: more resistant
[4]
  resistance of cells to the agent on fibronectin-coated plates in comparison with VCAM-1- and BSA-coated plates: more resistant
[5]; 4 AML patients with low VLA-4 levels, on fibronectin and BSA
  viability of cells exposed to ARA-C: decreased effectively
[5]; 8 AML patients with high VLA-4 levels, on fibronectin
  resistance of cells to ARA-C: relatively resistant to ARA-C
[5]; Patient A, low VLA-4, on fibronectin and BSA
  viability of cells exposed to ARA-C: decreased effectively
[5]; Patient B, high VLA-4, on fibronectin
  resistance of cells to ARA-C: relatively resistant to ARA-C

## O=C(O)c1cc(SSc2ccc([N+](=O)[O-])c(C(=O)O)c2)ccc1[N+](=O)[O-] [DTNB, 5,5′-dithiobis-(2-nitrobenzoic acid)]
[3]; U937 on BSA
  effect on viability of cells exposed to ARA-C, alone or in combination: no effect either alone or in combination
[6]; 5 mM DTNB, fibronectin-coated plates
  sensitization to ARA-C-induced cell death: sensitizes leukemic cells grown in fibronectin-coated plates to ARA-C-induced cell death
[6]; DTNB, BSA-coated plates
  sensitization to ARA-C-induced cell death: no effect
[5]; low VLA-4 leukemic cells, fibronectin-coated plates
  effect on viability of cells exposed to ARA-C, alone or in combination: no effect either alone or in combination

## COc1cccc2c1C(=O)c1c(O)c3c(c(O)c1C2=O)C[C@@](O)(C(C)=O)C[C@@H]3O[C@H]1C[C@H](N)[C@H](O)[C@H](C)O1 [daunorubicin, reference compound]
[3]
  resistance of cells to the agent on fibronectin-coated plates in comparison with VCAM-1- and BSA-coated plates: more resistant
[4]
  resistance of cells to the agent on fibronectin-coated plates in comparison with VCAM-1- and BSA-coated plates: more resistant
